# According to US10772863B2, “Methods of inducing metabolic maturation of human pluripotent stem cells— derived hepatocytes” (priority 2016, dated 2020):
# Several values for one entry are separate records, joined by “and”; a condition that tells them apart may be missing. Equal values may be shown once. Entries after “also recorded” stand apart in the source; their conditions may differ. Read-outs that look alike come from different tables or passages of the source.
# Columns and labels:
# hESC-derived hepatocytes [1] = type: cell-based, human; conditions: LA replaced with 9CLA, with 100 μM OA
# PXR = PXR (Homo sapiens, UniProt O75469); type: cell-based
# Chain of PXR (O75469 whole entry): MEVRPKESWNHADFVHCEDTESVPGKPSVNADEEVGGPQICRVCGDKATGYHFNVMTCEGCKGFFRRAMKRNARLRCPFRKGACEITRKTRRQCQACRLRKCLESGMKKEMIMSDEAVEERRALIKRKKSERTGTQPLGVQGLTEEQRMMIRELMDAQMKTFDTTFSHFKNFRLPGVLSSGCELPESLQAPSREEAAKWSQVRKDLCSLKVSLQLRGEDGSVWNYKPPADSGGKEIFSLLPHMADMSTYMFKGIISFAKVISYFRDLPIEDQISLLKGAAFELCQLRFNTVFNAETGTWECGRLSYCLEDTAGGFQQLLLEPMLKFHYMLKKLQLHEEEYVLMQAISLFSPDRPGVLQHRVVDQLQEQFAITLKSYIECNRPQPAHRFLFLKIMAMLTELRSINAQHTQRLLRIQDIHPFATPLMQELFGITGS
# Experimental: (§1) Cultured cells were fixed using 4% paraformaldehyde for 15 minutes at room temperature. […] Following washes, cells were incubated with secondary antibodies for 1 hour at room temperature in blocking buffer (Table 10, hereinbelow). Hoechst staining was performed using bisBenzimide H33342 for 2 minutes. Imaging was performed on a Zeiss LSM 700 confocal microscope.
# [2] = test system: PXR and its CYP2C9 and CYP3A4 target genes
# hESC-derived hepatocytes [3] = test: Albumin, AFP and ApoB100 production (ELISA); type: cell-based, human; conditions: cells treated with OA and LA; 24-hours treatment with GW9662
# Experimental: Culture media samples were collected daily and stored at −80° C. Albumin and AFP concentrations were analyzed using Human Albumin ELISA quantitation set (Bethyl laboratories, Montgomery, Tex.) and Human AFP (alpha-fetoprotein) Quantikine ELISA kit (R&D Systems, Minneapolis, Minn.), according to manufacturer directions. […] Data was normalized to total cellular protein utilizing the Bradford assay.
# hESC-derived hepatocytes [4] = test: qRT-PCR of nuclear receptors, lipid metabolism, albumin and mitochondrial genes after fatty acid treatment; type: cell-based, human
# hESC-derived hepatocytes [5] = test: HSP60 immunofluorescence and CellProfiler analysis of mitochondrial network; type: cell-based, human
# Experimental: as §1
# hESC-derived hepatocytes [6] = type: cell-based, human; conditions: 50 μM LCA
# [7] = test system: CYP450 (CYP1A, CYP3A4, CYP2C9); conditions: human, 72 h
# Experimental: CYP1A activity was evaluated utilizing EROD (ethoxyresorufin-o-deethylase) as previously described (Behnia, 2000). […] Briefly, cultures were incubated with 100 μM BFC (7-benzyloxy-4-trifluoromethylcoumarinat), or 10 μM MFC (7-methoxy-4-trifluoromethylcoumarin) for 1 hour at 37° C. Supernatant samples were collected every 30 minutes for 2.5 hours. The reactions were stopped by collection of the incubation medium. Metabolite conjugates formed via phase II activity were hydrolyzed by incubation of medium samples with β-glucuronidase/arylsulfatase for 2 hours at 37° C. Samples were diluted 1:1 in quenching solution and HFC (7-hydroxy-4-trifluoromethylcoumarin), the respective fluorescent metabolite formation, was measured at the appropriate wavelengths (410/510) and normalized to total protein determined by Bradford.
# CYP450 activity was quantified as described above at the end of the stimulation period.
# hESC-derived hepatocytes [8] = conditions: human, 24 h
# Experimental: Quantification of intracellular lipids was performed using LipidTOX™ Green Neutral Lipid Stain (Molecular Probes). […] Staining intensity was normalized to negative control. […] Incubation media was removed and cultures washed with ice-cold PBS containing calcium and magnesium. The number of green CDF particles was normalized to the number of Hoechst nuclei as an indicator of functional bile canaliculi. Particle and nuclei counting was performed utilizing the ImageJ particle analyzer.
# [9] = test system: LCA- and MK4-treated hESC-derived hepatocytes
# Experimental: Cultured cells were exposed to different concentrations of compounds dissolved in culture medium for 24 hours at 37° C. Cell viability was determined utilizing LIVE/DEAD Cytotoxicity kit (Molecular Probes, Eugene, Oreg.) according to manufacturer instructions. In brief, cultures were incubated with 2 μM Calcein AM and 3 μM ethidium homodimer-1 for 25 minutes. Hydrolysis by functional intracellular esterases causes live cells to fluoresce green, while the punctured membranes of dead cells permit ethidium homodimer-1 to bind DNA and fluoresce red. Cellular viability was calculated by live to dead ratio and normalized to negative control. TC50 values were quantified using GraphPad Prism software (La Jolla, Calif.).
# Differentiation was adapted to 96-well plates (General Materials and Experimental Methods above). Cells were exposed to increasing concentrations of compounds on day 16, and viability was quantified using fluorescence Live/Dead staining after 24 hours of exposure (FIG. 4D).
# hESC-derived hepatocytes [10] = test system: hESC-derived hepatocytes
# Experimental: Toxicological endpoints were evaluated for nine hepatotoxic compounds at TC20 values identified above. Quantitation of apoptotic cells was performed utilizing DeadEnd™ fluorometric TUNEL System (Promega, Madison, Wis.) according to manufacturer instructions. […] Cell were permeabilized and exposed to fluorescein-12-dUTP and terminal deoxynucleotidyl transferase (TdT), dying apoptotic nuclei green. The reaction was subsequently stopped and the cells counterstained for DAPI. A percent apoptotic nucleus was calculated by dividing the number of TUNEL to DAPI positive nuclei.
compound,measurement,setting,value
"CCCCCC/C=C/C=C\CCCCCCCC(=O)O [9CLA, cis-9,trans-11-octadecadienoic acid]",mitochondrial respiration relative to primary human hepatocytes,hESC-derived hepatocytes [1],60%
same,increase in PXR nuclear localization compared to untreated cells,"PXR; 100 μM each, 9CLA replaces LA, with OA",50%
same,additional increase in PXR nuclear localization when LA is replaced with 9CLA,PXR; with OA,30% and 40%
same,CYP3A4 and CYP2C9 gene expression,[2]; hepatocytes,increased significantly
"C[S+](C)[O-] [DMSO, Dimethyl sulfoxide]",CYP450 gene expression,"[2]; human, hepatocytes, 2 %",increased expression of all CYP450 enzymes measured
same,increase in expression of PXR and most CYP450 enzymes checked,"[2]; human, hepatocytes, 2 %",2-6 fold
O=C(Nc1ccccc1)c1cc([N+](=O)[O-])ccc1Cl [GW9662],effect on albumin secretion / albumin gene expression and production,hESC-derived hepatocytes [3],significant decrease; also recorded: blocked
same,effect on expression of genes involved in lipid metabolism,"hESC-derived hepatocytes [4]; 24-hours treatment, OA and LA treated cells",inhibited
same,"PGC1, MFN2 and FIS1 gene expression",hESC-derived hepatocytes [4]; fatty acid treated cells,decrease
same,effect on fatty acid induced elongation and narrowing of mitochondria,hESC-derived hepatocytes [5],reversed the effect
same,effect on PXR nuclear localization,PXR; fatty acid treated cells,down-regulated; also recorded: significant decrease
same,CYP3A4 and CYP2C9 gene expression,[2]; fatty acid treated cells,down-regulated
"C[C@H](CCC(=O)O)[C@H]1CC[C@H]2[C@@H]3CC[C@@H]4C[C@H](O)CC[C@]4(C)[C@H]3CC[C@]12C [LCA, lithocholic acid]",toxicity to differentiating cells,hESC-derived hepatocytes [6],mild toxicity
"CC(C)=CCC/C(C)=C/CC/C(C)=C/CC/C(C)=C/CC1=C(C)C(=O)c2ccccc2C1=O [MK4, menaquinone-4]",PXR expression induction,"[2]; 10 μM, final maturation step",1.9 fold
"COc1ccc2[nH]c([S+]([O-])Cc3ncc(C)c(OC)c3C)nc2c1 (centres unmarked) [Omeprazole, omeprazole]",induction of BFC metabolism,[7],3 fold
same,induction of EROD metabolism,[7]; 50 μM,9 fold
same,induction of CYP450 activity,"[7]; hepatocytes, 50 μM",preferentially induced CYP1A
CC(=O)Oc1ccccc1C(=O)O [acetylsalicylic acid],increase in intracellular lipids compared to control,hESC-derived hepatocytes [8],25-26 fold
same,TC20 concentration used for endpoint assays,"[9]; human, 24 h",2000 µM
CN(C)CCCN1c2ccccc2Sc2ccc(Cl)cc21 [chlorpromazine],decrease in number of CDF-positive bile canaliculi compared to control,hESC-derived hepatocytes [8],13-30 fold
same,loss of epithelial polarization,hESC-derived hepatocytes [8],14 fold
same,TC20 concentration used for endpoint assays,"[9]; human, 24 h",45 µM
O=C(O)Cc1ccccc1Nc1c(Cl)cccc1Cl [diclofenac],TC20 concentration used for endpoint assays,[9]; human,300 µM
same,DNA fragmentation compared to control,hESC-derived hepatocytes [10],significant increase
same,increase in percent of apoptotic nuclei compared to control,"hESC-derived hepatocytes [10]; human, 24 h",3-4 fold
OC[C@@H](O)[C@@H](O)[C@H](O)[C@H](O)CO [mannitol],toxicity,[9],no adverse effects
COc1ccc2[nH]cc(CCNC(C)=O)c2c1 [melatonin],increase in intracellular lipids compared to control,hESC-derived hepatocytes [8],30 fold
same,intracellular lipid accumulation,hESC-derived hepatocytes [8],significant (P<0.006) increase
same,toxicity,[9],clear toxicity
same,TC50,"[9]; human, 24 h",0.7 ± 0.2 mM
same,effect on cell viability,hESC-derived hepatocytes [10],not affecting
CC1CCC(C(C)C)C(O)C1 (centres unmarked) [menthol],toxicity,[9],no adverse effects
Cc1c(C)c2c(c(C)c1O)CCC(C)(COc1ccc(CC3SC(=O)NC3=O)cc1)O2 (centres unmarked) [troglitazone],decrease in number of CDF-positive bile canaliculi compared to control,hESC-derived hepatocytes [8],13-30 fold
same,loss of epithelial polarization,hESC-derived hepatocytes [8],14 fold
same,TC20 concentration used for endpoint assays,"[9]; human, 24 h",80 µM
CCCC(CCC)C(=O)O [valproic acid],increase in intracellular lipids compared to control,hESC-derived hepatocytes [8],25-26 fold
aflatoxin B1,TC20 concentration used for endpoint assays,[9],2 µM
same,DNA fragmentation compared to control,hESC-derived hepatocytes [10],significant increase
